Values after ≈ are worked out from the molar mass of the structure shown.

In ChEMBL document CHEMBL3621045, “Structural Insights Lead to a Negamycin Analogue with Improved Antimicrobial Activity against Gram-Negative Pathogens” (ACS Med Chem Lett, 2015) one finds MIC and IC50 data, which are given here for 17 molecules.

Assay [1] deals with Pseudomonas aeruginosa. The assay can be described thus: Antibacterial activity against Pseudomonas aeruginosa PAO1. Type of assay: functional.
The next assay relates to Acinetobacter baumannii. The assay can be described thus: Antibacterial activity against Acinetobacter baumannii ARC 3495. Type of assay: functional.
The subject of assay [2] is Pseudomonas aeruginosa. The assay can be described thus: Antibacterial activity against mexABCDXY-deficient Pseudomonas aeruginosa PAO1. Type of assay: functional.
For assay [3], the system named is Escherichia coli. The assay is described as follows: microbe, parasite or virus in culture. As to conditions: ATCC 25922.
Description: Antibacterial activity against tolC-deficient Escherichia coli ATCC 25922
Assay [4] deals with Escherichia coli. The assay is described as follows: Inhibition of transcription-translation process in Escherichia coli. Type of assay: functional. As to conditions: Escherichia coli.
Another assay has as its system Klebsiella pneumoniae. The assay can be described thus: Antibacterial activity against Klebsiella pneumoniae ATCC 700603. Type of assay: functional.
For assay [5], the system named is Escherichia coli. The assay is described as follows: microbe, parasite or virus in culture. Particulars: ATCC 25922. This is another data set of the same source.
Description: Antibacterial activity against Escherichia coli ATCC 25922

What is called IC50 is the concentration that gives 50% inhibition. Regarding `COCCNC[C@H](O)C[C@@H](N)CC(=O)NN(C)CC(=O)O`, the MIC was over 256 µg/mL with Pseudomonas aeruginosa [1]; 256 µg/mL (≈ 836 µM) in the assay with Acinetobacter baumannii; over 256 µg/mL with Pseudomonas aeruginosa [2]; 128 µg/mL (≈ 418 µM) with Escherichia coli [3]; 128 µg/mL (≈ 418 µM) in the assay on Klebsiella pneumoniae; over 256 µg/mL with Escherichia coli [5]. 5.3 µM corresponded to half-maximal inhibition in the assay with Escherichia coli [4] (IC50).

`CCNC[C@H](O)C[C@@H](N)CC(=O)NN(C)CC(=O)O`: the MIC came to 512 µg/mL (≈ 1850 µM) against Pseudomonas aeruginosa [1], 64 µg/mL (≈ 232 µM) in the assay with Acinetobacter baumannii, 64 µg/mL (≈ 232 µM) against Klebsiella pneumoniae and 64 µg/mL (≈ 232 µM) against Escherichia coli [5]. In the assay with Escherichia coli [4], this molecule gave an IC50 of 0.5 µM.

Regarding `CN(CC(=O)O)NC(=O)C[C@@H](N)C[C@H](O)CN`, the MIC against Pseudomonas aeruginosa [1] was found to be 256 µg/mL (≈ 1030 µM); in the assay with Acinetobacter baumannii it was 128 µg/mL (≈ 516 µM); against Klebsiella pneumoniae, 256 µg/mL (≈ 1030 µM); against Escherichia coli [5] it was 512 µg/mL (≈ 2060 µM). In the assay on Escherichia coli [4], this molecule came in with an IC50 of 12 µM.

`CC(N)CCNC[C@H](O)C[C@@H](N)CC(=O)NN(C)CC(=O)O` (stereo partly drawn): the MIC amounted to 128 µg/mL (≈ 401 µM) in the assay on Pseudomonas aeruginosa [1]; 64 µg/mL (≈ 200 µM) against Acinetobacter baumannii; 64 µg/mL (≈ 200 µM) with Pseudomonas aeruginosa [2]; 64 µg/mL (≈ 200 µM) against Escherichia coli [3]; 64 µg/mL (≈ 200 µM) in the assay on Klebsiella pneumoniae; 64 µg/mL (≈ 200 µM) with Escherichia coli [5]. This molecule registered an IC50 with Escherichia coli [4] of 3.4 µM.

In the case of `CN(CC(=O)O)NC(=O)C[C@H](N)C[C@@H](O)CNCc1ccccc1`, the MIC was over 256 µg/mL in the assay with Pseudomonas aeruginosa [1], over 256 µg/mL in the assay with Acinetobacter baumannii, 128 µg/mL (≈ 378 µM) with Klebsiella pneumoniae and 128 µg/mL (≈ 378 µM) in the assay with Escherichia coli [5]. The molecule also gave an IC50 with Escherichia coli [4] of 1 µM.

Take `CN(CC(=O)O)NC(=O)C[C@H](N)CCCN`: the MIC in the assay with Pseudomonas aeruginosa [1], against Acinetobacter baumannii, against Klebsiella pneumoniae and in the assay with Escherichia coli [5] was 128 µg/mL (≈ 551 µM) throughout. Also, the IC50 in the assay on Escherichia coli [4] turned out to be 3.3 µM.

Consider `NC[C@H](O)C[C@@H](N)CC(=O)NOCC(=O)O`, for which the MIC against Pseudomonas aeruginosa [1], in the assay on Acinetobacter baumannii, in the assay on Klebsiella pneumoniae and in the assay on Escherichia coli [5] was over 256 µg/mL each time. In addition, in the assay with Escherichia coli [4], the IC50 is over 100 µM.

With `CNCCCNC[C@H](O)C[C@@H](N)CC(=O)NN(C)CC(=O)O`, the MIC turned out to be 256 µg/mL (≈ 801 µM) against Pseudomonas aeruginosa [1]; 64 µg/mL (≈ 200 µM) against Acinetobacter baumannii; 256 µg/mL (≈ 801 µM) against Pseudomonas aeruginosa [2]; 256 µg/mL (≈ 801 µM) in the assay on Escherichia coli [3]; 64 µg/mL (≈ 200 µM) with Klebsiella pneumoniae; 256 µg/mL (≈ 801 µM) against Escherichia coli [5]. In the assay with Escherichia coli [4], this molecule gave an IC50 of 5.8 µM.

In the case of `CN(CC(=O)O)NC(=O)C[C@H](N)C[C@@H](O)CNCCC(N)=O`, the MIC in the assay on Pseudomonas aeruginosa [1] was over 256 µg/mL; with Acinetobacter baumannii, over 256 µg/mL; in the assay with Pseudomonas aeruginosa [2], over 256 µg/mL; against Escherichia coli [3] it was 256 µg/mL (≈ 802 µM); against Klebsiella pneumoniae, over 256 µg/mL; in the assay with Escherichia coli [5] it was over 256 µg/mL. In the assay with Escherichia coli [4], this molecule displayed an IC50 of 4 µM.

As for `CC(CN)CNC[C@H](O)C[C@@H](N)CC(=O)NN(C)CC(=O)O` (stereo partly drawn), the MIC against Pseudomonas aeruginosa [1] was found to be 32 µg/mL (≈ 100 µM); against Acinetobacter baumannii, 16 µg/mL (≈ 50.1 µM); with Pseudomonas aeruginosa [2], 16 µg/mL (≈ 50.1 µM); against Escherichia coli [3], 16 µg/mL (≈ 50.1 µM); with Klebsiella pneumoniae, 16 µg/mL (≈ 50.1 µM); in the assay with Escherichia coli [5], 32 µg/mL (≈ 100 µM). This molecule returned an IC50 with Escherichia coli [4] of 1.1 µM.

Turning to `CN(CC(=O)O)NC(=O)C[C@H](N)C[C@@H](O)CNCCCNC(=N)N`, the MIC worked out at 512 µg/mL (≈ 1470 µM) in the assay with Pseudomonas aeruginosa [1]; 64 µg/mL (≈ 184 µM) with Acinetobacter baumannii; 256 µg/mL (≈ 737 µM) against Pseudomonas aeruginosa [2]; 256 µg/mL (≈ 737 µM) in the assay on Escherichia coli [3]; 128 µg/mL (≈ 368 µM) in the assay on Klebsiella pneumoniae; 512 µg/mL (≈ 1470 µM) against Escherichia coli [5]. In the assay with Escherichia coli [4], this molecule registered an IC50 of 1.7 µM.

With `CN(CC(=O)O)NC(=O)C[C@H](N)[C@@H](O)[C@@H](O)CN`, the MIC against Pseudomonas aeruginosa [1] is over 64 µg/mL; against Acinetobacter baumannii it was 64 µg/mL (≈ 242 µM); in the assay with Klebsiella pneumoniae it was over 64 µg/mL; in the assay with Escherichia coli [5], over 64 µg/mL. The same molecule yielded an IC50 in the assay with Escherichia coli [4] of 3.2 µM.

With `CN(CC(=O)O)NC(=O)C[C@H](N)C[C@@H](O)CNCc1ccccn1`, the MIC in the assay on Pseudomonas aeruginosa [1] is over 256 µg/mL; in the assay with Acinetobacter baumannii it was over 256 µg/mL; in the assay on Pseudomonas aeruginosa [2], over 256 µg/mL; in the assay with Escherichia coli [3], 256 µg/mL (≈ 754 µM); against Klebsiella pneumoniae, over 256 µg/mL; against Escherichia coli [5], over 256 µg/mL. The same molecule registered a concentration for half-maximal inhibition (IC50) with Escherichia coli [4] of 11 µM.

With `CN(CC(=O)O)NC(=O)C[C@H](N)[C@H](O)[C@@H](O)CN`, the MIC in the assay on Pseudomonas aeruginosa [1], with Acinetobacter baumannii, in the assay with Klebsiella pneumoniae and against Escherichia coli [5] was over 256 µg/mL each time. The molecule also had an IC50 in the assay on Escherichia coli [4] of 43 µM.

As to `CN(CC(=O)O)NC(=O)C[C@H](N)C[C@@H](O)CNC(CCN)c1ccccc1` (stereo partly drawn), the MIC in the assay on Pseudomonas aeruginosa [1] is over 256 µg/mL; in the assay with Acinetobacter baumannii, over 256 µg/mL; in the assay with Pseudomonas aeruginosa [2], 32 µg/mL (≈ 83.9 µM); in the assay on Escherichia coli [3], 128 µg/mL (≈ 336 µM); against Klebsiella pneumoniae, 64 µg/mL (≈ 168 µM); in the assay on Escherichia coli [5] it was 256 µg/mL (≈ 671 µM). The molecule further returned an IC50 with Escherichia coli [4] of 2.3 µM.

Turning to `CN(CC(=O)O)NC(=O)C[C@H](N)C[C@@H](F)CN`, the MIC with Pseudomonas aeruginosa [1] came out at 128 µg/mL (≈ 511 µM); against Acinetobacter baumannii, 128 µg/mL (≈ 511 µM); in the assay with Klebsiella pneumoniae, 64 µg/mL (≈ 256 µM); in the assay with Escherichia coli [5] it was 64 µg/mL (≈ 256 µM). Besides, in the assay with Escherichia coli [4], the IC50 came to 2.9 µM.

For `CN(CC(=O)O)NC(=O)C[C@H](N)C[C@@H](O)CNCC(F)CN` (stereo partly drawn), the MIC with Pseudomonas aeruginosa [1] was 256 µg/mL (≈ 792 µM); in the assay on Acinetobacter baumannii, 256 µg/mL (≈ 792 µM); with Pseudomonas aeruginosa [2], 128 µg/mL (≈ 396 µM); with Escherichia coli [3], 128 µg/mL (≈ 396 µM); against Klebsiella pneumoniae, 128 µg/mL (≈ 396 µM); with Escherichia coli [5], 256 µg/mL (≈ 792 µM). Also, in the assay on Escherichia coli [4], the IC50 was 3.6 µM.
